Assay results from patent US20240067693A1, “POLYPEPTIDES AND USES THEREOF” (MEDIMMUNE LIMITED, priority 2020, published 2024).
Numbered stars: 1 amine (or outer) side, 2 acyl side, 3 side chain; on linkers, the order of the positions; unused ones are H or OH. Bridge positions count the residues as written; N and C are the ends. Square brackets hold non-standard residues; d marks the D form. Side chains are listed from the residue outwards. Peptide text beside a SMILES is read from it. * marks the point of attachment. C18 diacid = O=C(O)CCCCCCCCCCCCCCCCC(=O)*; γGlu = O=C(O)[C@H](CCC(=O)[*:2])N[*:1]; Aib = CC(C)(N)C(=O)O

Experiments:
[1] = target: T1, rat amylin receptor (calcitonin receptor co-expressed with receptor activity modifying protein, RAMP3) (Rat AMYR3) (Rattus norvegicus, UniProt P32214+Q9JJ73); test: cAMP production in HEK cells with stable recombinant expression of rat amylin receptor (Rat AMYR3); format: cell-based; details: assay buffer with 0.1% BSA
T1 construct: expressed in transfected cells
T1 sequence (P32214 25-516): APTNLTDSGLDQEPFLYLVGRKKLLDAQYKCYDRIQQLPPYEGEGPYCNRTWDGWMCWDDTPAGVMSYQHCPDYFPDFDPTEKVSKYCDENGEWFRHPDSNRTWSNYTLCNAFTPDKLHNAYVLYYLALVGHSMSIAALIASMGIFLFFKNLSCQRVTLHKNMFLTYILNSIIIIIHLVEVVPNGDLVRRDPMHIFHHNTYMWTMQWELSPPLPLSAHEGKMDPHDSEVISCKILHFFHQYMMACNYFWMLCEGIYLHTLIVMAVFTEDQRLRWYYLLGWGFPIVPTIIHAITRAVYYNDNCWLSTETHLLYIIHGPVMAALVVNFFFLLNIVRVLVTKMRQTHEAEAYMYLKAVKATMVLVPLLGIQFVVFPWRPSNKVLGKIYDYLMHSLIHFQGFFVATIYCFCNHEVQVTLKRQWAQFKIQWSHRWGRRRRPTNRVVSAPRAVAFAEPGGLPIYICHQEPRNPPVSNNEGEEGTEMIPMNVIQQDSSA
T1 sequence (Q9JJ73 23-147 partner): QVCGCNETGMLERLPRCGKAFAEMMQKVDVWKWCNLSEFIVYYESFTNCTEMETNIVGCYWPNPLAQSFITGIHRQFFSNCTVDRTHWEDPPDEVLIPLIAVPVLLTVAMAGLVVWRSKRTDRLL
How it was run: (§1)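 Thawed cells in HBSS/0.1% BSA/25 mM HEPES pH 7.4 with 0.5 mM IBMX were incubated with peptides 30 min at room temperature; cAMP read by HTRF. EC50 from 4-parameter fit of % activation relative to maximal amylin or calcitonin effect.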

[2] = target: T2, rat calcitonin receptor (rat CTR) (Rattus norvegicus, UniProt P32214); test: cAMP production in HEK cells with stable recombinant expression of rat calcitonin receptor (rat CTR); format: cell-based; details: assay buffer with 0.1% BSA
T2 construct: expressed in transfected cells
T2 sequence (P32214 25-516): T1 sequence (P32214 25-516)
How it was run: as §1

[3] = Thioflavin T fibrillation assay; format: physicochemical; details: ThT fibrillation assay; peptide 1 mg/mL in 25 mM sodium acetate buffer pH 4.0; 6 days at 37 °C with shaking; >144 h = no increase
How it was run: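 Peptides at 1 mg/mL in 25 mM sodium acetate pH 4.0 with ThT (from 0.25 mM stock), incubated 6 days at 37 °C with intermittent orbital shaking at 500–750 rpm. Fluorescence (ex 444/em 480 nm) read every 30 min; value is average time to a rise in baseline-corrected signal.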

lean rats = test: Rat acute food intake study; format: in vivo; details: lean male Sprague Dawley rats, 20 nmol/kg subcutaneously
How it was run: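 Male Sprague Dawley rats (n=7/group), fasted 6 h, received 20 nmol/kg test compound or 60 nmol/kg pramlintide subcutaneously 30 min before food return at dark onset. Food intake recorded automatically in home cages over 3 days, binned hourly and analysed as cumulative dark-period intake; body weight taken daily.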

For `CC[C@H](C)[C@H](NC(=O)[C@@H]1CCCN1C(=O)CNC(=O)[C@H](Cc1ccccc1)NC(=O)[C@H](CC(N)=O)NC(=O)[C@H](CC(N)=O)NC(=O)[C@H](CO)NC(=O)[C@H](CO)NC(=O)[C@H](Cc1c[nH]cn1)NC(=O)C(C)(C)NC(=O)[C@H](CC(C)C)NC(=O)[C@H](Cc1ccccc1)NC(=O)[C@H](CC(N)=O)NC(=O)[C@H](C)NC(=O)[C@H](CC(C)C)NC(=O)[C@H](CCCNC(=N)N)NC(=O)[C@H](CCC(N)=O)NC(=O)[C@@H](NC(=O)[C@H](C)NC(=O)[C@@H]1CSSC[C@H](NC(=O)[C@H](CCCCN)NC(=O)[C@@H](N)CCCCNC(=O)CC[C@H](NC(=O)CCCCCCCCCCCCCCCCC(=O)O)C(=O)O)C(=O)N[C@@H](CC(N)=O)C(=O)N[C@@H]([C@@H](C)O)C(=O)N[C@@H](C)C(=O)N[C@@H]([C@@H](C)O)C(=O)N1)[C@@H](C)O)C(=O)N[C@@H](CC(C)C)C(=O)N1CCC[C@H]1C(=O)N1CCC[C@H]1C(=O)N[C@H](C(=O)N[C@@H](CC(N)=O)C(=O)N[C@H](C(=O)NCC(=O)N[C@@H](CO)C(=O)N[C@@H](CC(N)=O)C(=O)N[C@H](C(=O)N[C@@H](Cc1ccc(O)cc1)C(N)=O)[C@@H](C)O)C(C)C)[C@@H](C)O` [Peptide 129] (H-K([γGlu-C18 diacid])KCNTATCATQRLANFL[Aib]HSSNNFGPILPPTNVGSNTY-NH2; disulfide 3-8; N-terminus assumed), the EC50 [1] was 11.2 pM, the EC50 [2] was 2870 pM and the “Time taken to detect increase in fluorescence intensity” value [3] was >144 h. For the same compound, the “Cummulative food intake (% vehicle treated intake) At 12 h” value (lean rats; at 12 h) was 29 % vehicle treated intake, the “Cummulative food intake (% vehicle treated intake) At 24 h” value (lean rats; at 24 h) was 32.4 % vehicle treated intake and the “Cummulative food intake (% vehicle treated intake) At 48 h” value (lean rats; at 48 h) was 51 % vehicle treated intake.
